Patent US10501460B2, “Heterocyclic compounds and uses thereof” (Plexxikon Inc., priority 2013, dated 2019)

Tests used:
BRD4-BD1 (44-164) = target: T1, BRD4-BD1 (44-164) (Homo sapiens, UniProt O60885); assay: Alphascreen binding assay BRD4-BD1 (BRD4 biochemical inhibitory activity); details: read-out: Biochemical activity (IC50 μM) BRD4(1) H4
T1 construct: BRD4-BD1 (44-164); made in house; host or cells: E. coli BL21-CodonPlus (DE3)
Protocol: Binding of compounds of formula (I) with bromodomain 2, 3 4 was assessed using Alphascreen binding assay. The inhibition of the interaction between bromodomain and its acetylated target protein (Filippakopoulos P et al. 2012) was measured quantitatively using recombinant BRD proteins, an acetylated Histone 4 peptide and AlphaScreen™ technology. In absence of inhibition the BRD protein bound to AlphaScreen™ nickel chelate acceptor beads can interact with the acetylated Histone 4 peptide which is immobilized by the AlphaScreen™ Streptavidin coated beads. This interaction brings donor and acceptor beads in proximity. The close proximity allows the singlet oxygen produced by laser excitation of the donor beads to reach the acceptor beads and generate a luminescence signal. BRD inhibitors result in a decrease in the proximity signal through an inhibition of the BRD—acetylated peptide interaction.
Recombinant human bromodomains containing the N-terminal bromodomain (BRD2-BD1 (71-194), BRD3-BD1 (24-144) and BRD4-BD1 (44-164)) or dual bromodomains (BRD4-BD12 (1-477), BRD4-BD12 (1-472)) were prepared and purified as described in protein expression and purification session. The peptide is human Histone H41-21K5AcK8AcK12AcK16Ac-Biotin (Anaspec Calif., USA).
Protocol for BRD2, BRD3 and BRD4 assay: All components are prepared in buffer composed of 50 mM HEPES pH 7.5, 100 mM NaCl, 0.01% bovine serum albumin (“BSA”), 0.01% Triton X-100, 2 mM dithiothreitol (“DTT”). 7 μL of Bromodomain protein and 7 μL of peptide are added to wells containing 1 μL of various concentrations of test compounds of formula (I) or DMSO vehicle in an Alphaplate (PerkinElmer Ga., USA) and incubated for 1 hour at room temperature. 4 μL donor and acceptor bead mixture is then added with final concentrations of 7.5 μg/ml. 30 minutes after bead addition, Alpha signal is read on the Envision spectrometer ([…]Ex 680 nm, […]Em 520-620 nm). Final concentrations of bromodomain proteins and peptide are as shown below.
All data was normalized to the mean of 16 high and 16 low control wells on each plate. A four parameter curve fit of the following formula was then applied: Y=a+(b−a)/(1+(x/c)^d) Where ‘a’ is the minimum, ‘b’ is the maximum, ‘c’ is the pIC50 and ‘d’ is the Hill slope. Protein Expression and Purification
Recombinant human bromodomains containing the N-terminal bromodomain (BRD2-BD1 (71-194), BRD3-BD1 (24-144) and BRD4-BD1 (44-164)) or dual bromodomains (BRD4-BD12 (1-477), BRD4-BD12 (1-472)) were expressed in E. coli cells (in a modified pET vector) with an N-terminal six-His tag and purified using a combination of both IMAC (Ni-affinity) and size exclusion chromatography steps.
Recombinant BRD proteins were expressed using the E. coli strain BL21-CodonPlus (DE3) (Agilent Technologies Calif., USA). Cells were grown in Terrific Broth (TB) media to an OD600 of 1.2 at 37° C. at which temperature was reduced to 25° C., protein was induced with 1.0 mM ispropyl-β-D-thiogalactopyranoside (“IPTG”) for 12-18 hours and harvested by centrifugation at 8000×g for 20 minutes. Cells were re-suspended in 0.1M K2PO4 pH 8.0, 250 mM NaCl, 10% Glycerol, 0.75% NP-40, 25 mM Imidazole, 5 mM beta-mercaptoethanol (“BME”) with 0.2 mg/ml Lysosyme, 2.0 mM phenylmethanesulfonyl fluoride (“PMSF”), 25 μg/ml DNAse I, incubated on ice for 30 minutes and lyzed with a cell disruptor (MicroFluidics Mass., USA). The lysate was clarified by centrifugation at 20,000×g for 2 hours. The protein was captured with Ni-NTA resin (Life Technologies, USA). Contaminating proteins were washed off with 25 mM Tris-HCl pH 8.3, 250 mM NaCl, 12% Glycerol and 50 mM Imidazole. Following 3× wash steps, protein was eluted step wise using a 50 mM HEPES pH 7.5, 500 mM NaCl and 400 mM Imidazole. The protein was further purified using Gel Filtration column 26/600 Superdex 200 (GE Biosciences NJ, USA) in 50 mM HEPES pH 7.5, 250 mM NaCl. The protein was aliquoted and flash-frozen in liquid Nitrogen. […]

bromodomain = assay: Bromodomain cell assays of Example 40 (at least one of them); assay type: cell-based; details: in at least one of the bromodomain cell assays described in Example 40
Method in brief: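 Growth inhibition: 3000 MV-4-11, MOLM-13, MM.1S or neuroblastoma cells/well got an 8-point 1:3 series from 10 μM top (0.2% DMSO) for 72 h, then CellTiter-Glo luminescence. Myc reporter: MV-4-11 with E-box firefly luciferase, 24 h exposure, One-Glo luminescence plus CellTiter-Fluo cell count. pIC50 from four-parameter fit.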

MV-4-11 = assay: Oncology cell growth assay MV-4-11 (CellTiter Glo, 72 hours); assay type: cell-based; details: Homo sapiens, MV4-11, 72 h; MV-4-11 cell growth inhibitory activity, 3d
Method in brief: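 Growth read by CellTiter Glo luminescence after 72 h compound exposure of MV-4-11 AML cells (MLL-AF4), using 8-point 1:3 series to 10 μM final in 0.2% DMSO. Data normalized to DMSO wells, four-parameter fit yields pIC50.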

SMILES	IC50 (BRD4-BD1 (44-164)) [µM]	IC50 (bromodomain) [µM]	IC50 (MV-4-11) [µM]
Cc1noc(C)c1-c1cnc2[nH]c(-c3ccccc3)cc2c1 [P-0001, 3,5-dimethyl-4-(2-phenyl-1H-pyrrolo[2,3-b]pyridin-5-yl)isoxazole]	1 to 10	< 10	
Cc1noc(C)c1-c1ccc2[nH]ccc2c1 [P-0002, 4-(1H-indol-5-yl)-3,5-dimethyl-isoxazole]	1 to 10	< 10	
Cc1noc(C)c1-c1cnc2[nH]cc(C(=O)c3cccnc3)c2c1 [P-0004, [5-(3,5-dimethylisoxazol-4-yl)-1H-pyrrolo[2,3-b]pyridin-3-yl]-(3-pyridyl)methanone]	1 to 10	< 10	
Cc1noc(C)c1-c1cnc2[nH]c(C)c(C(=O)c3cccnc3)c2c1 [P-0006, [5-(3,5-dimethylisoxazol-4-yl)-2-methyl-1H-pyrrolo [2,3-b]pyridin-3-yl]-(3-pyridyl)methanone]	1 to 10	< 10	
Cc1noc(C)c1-c1cnc2[nH]c(-c3ccc(F)cc3)c(C(=O)c3cccnc3)c2c1 [P-0008, [5-(3,5-dimethylisoxazol-4-yl)-2-(4-fluorophenyl)-1H-pyrrolo[2,3-b]pyridin-3-yl]-(3-pyridyl)methanone]	1 to 10	< 10	
Cc1noc(C)c1-c1ccc2[nH]cc(CCN3CCCC3)c2c1 [P-0010, 3,5-dimethyl-4-[3-(2-pyrrolidin-1-ylethyl)-1H-indol-5-yl]isoxazole]	1 to 10	< 10	
Cc1noc(C)c1-c1cnc2[nH]cc(Cc3ccc(C(F)(F)F)cc3)c2c1 [P-0015, 3,5-dimethyl-4-[3-[[4-(trifluoromethyl)phenyl]methyl]-1H-pyrrolo[2,3-b]pyridin-5-yl]isoxazole]	1 to 10	< 10	
Cc1noc(C)c1-c1cnc2[nH]cc(C(=O)c3ccc(C(F)(F)F)cc3)c2c1 [P-0016, [5-(3,5-dimethylisoxazol-4-yl)-1H-pyrrolo[2,3-b]pyridin-3-yl]-[4-(trifluoromethyl)phenyl]methanone]	1 to 10	< 10	
Cc1noc(C)c1-c1cnc2cc[nH]c2c1 [P-0018, 3,5-dimethyl-4-(1H-pyrrolo[3,2-b]pyridin-6-yl)isoxazole]	1 to 10	< 10	
CCc1[nH]c2ncc(-c3c(C)noc3C)cc2c1Cc1cccc(OC(F)(F)F)c1 [P-0050, 4-[2-ethyl-3-[[3-(trifluoromethoxy)phenyl]methyl]-1H-pyrrolo[2,3-b]pyridin-5-yl]-3,5-dimethyl-isoxazole]	10 to 200	< 10	
COc1ccccc1S(=O)(=O)n1ccc2ncc(-c3c(C)noc3C)cc21 [P-0065, 4-[1-(2-methoxyphenyl)sulfonylpyrrolo[3,2-b]pyridin-6-yl]-3,5-dimethyl-isoxazole]	1 to 10	< 10	
Cc1noc(C)c1-c1cnc2c(-c3cnn(C(F)F)c3)cn(CC3CCC(F)(F)CC3)c2c1 [P-0210, 4-[1-[(4,4-difluorocyclohexyl)methyl]-3-[1-(difluoromethyl)pyrazol-4-yl]pyrrolo[3,2-b]pyridin-6-yl]-3,5-dimethyl-isoxazole]		< 10	≤ 1
[2H]C([2H])(C1CCC(F)(F)CC1)n1cc(-c2cnn(C)c2)c2ncc(-c3c(C)noc3C)cc21 [P-0211, 4-[1-[dideuterio-(4,4-difluorocyclohexyl)methyl]-3-(1-methylpyrazol-4-yl)pyrrolo[3,2-b]pyridin-6-yl]-3,5-dimethyl-isoxazole]		< 10	≤ 1
Cc1noc(C)c1-c1cnc2c(-c3cnn(C)c3)cn(CC3(F)CCCCC3)c2c1 [P-0212, 4-[1-[(1-fluorocyclohexyl)methyl]-3-(1-methylpyrazol-4-yl)pyrrolo[3,2-b]pyridin-6-yl]-3,5-dimethyl-isoxazole]		< 10	≤ 1
Cc1noc(C)c1-c1cnc2c(-c3cnn(C)c3)cn(CC3CC(F)(F)C3)c2c1 [P-0213, 4-[1-[(3,3-difluorocyclobutyl)methyl]-3-(1-methylpyrazol-4-yl)pyrrolo[3,2-b]pyridin-6-yl]-3,5-dimethyl-isoxazole]		< 10	≤ 1
[2H]C([2H])(C1CC(F)(F)C1)n1cc(-c2cnn(C)c2)c2ncc(-c3c(C)noc3C)cc21 [P-0214, 4-[1-[dideuterio-(3,3-difluorocyclobutyl)methyl]-3-(1-methylpyrazol-4-yl)pyrrolo[3,2-b]pyridin-6-yl]-3,5-dimethyl-isoxazole]		< 10	≤ 1
Cc1noc(C)c1-c1cnc2c(-c3cc(C(F)(F)F)n[nH]3)cn(C(C)c3ccccc3)c2c1 (stereo not shown) [P-0215, 3,5-dimethyl-4-[1-(1-phenylethyl)-3-[3-(trifluoromethyl)-1H-pyrazol-5-yl]pyrrolo[3,2-b]pyridin-6-yl]isoxazole]		< 10	≤ 1
Cc1noc(C)c1-c1cnc2c(-c3cnn(C4CC4)c3)cn(C(C)c3ccccc3)c2c1 (stereo not shown) [P-0216, 4-[3-(1-cyclopropylpyrazol-4-yl)-1-(1-phenylethyl)pyrrolo[3,2-b]pyridin-6-yl]-3,5-dimethyl-isoxazole]		< 10	≤ 1
[2H]C([2H])(O)C(c1ccccc1)n1cc(-c2cnn(C)c2)c2ncc(-c3c(C)noc3C)cc21 (stereo not shown) [P-0218, 1,1-dideuterio-2-[6-(3,5-dimethylisoxazol-4-yl)-3-(1-methylpyrazol-4-yl)pyrrolo[3,2-b]pyridin-1-yl]-2-phenyl-ethanol]		< 10	≤ 1
[2H]C([2H])(C1CCC(F)(F)CC1)n1cc(-c2cnn(C(F)F)c2)c2ncc(-c3c(C)noc3C)cc21 [P-0219, 4-[1-[dideuterio-(4,4-difluorocyclohexyl)methyl]-3-[1-(difluoromethyl)pyrazol-4-yl]pyrrolo[3,2-b]pyridin-6-yl]-3,5-dimethyl-isoxazole]		< 10	≤ 1
Cc1noc(C)c1-c1cnc2c(-c3cnn(C)c3)cn([C@@H](C)c3ccccc3)c2c1 [P-0222, 3,5-dimethyl-4-[3-(1-methylpyrazol-4-yl)-1-[(1S)-1-phenylethyl]pyrrolo[3,2-b]pyridin-6-yl]isoxazole]		< 10	≤ 1
Cc1noc(C)c1-c1cnc2c(-c3cnn(C)c3)cn([C@H](C)c3ccccc3)c2c1 [P-0223, 3,5-dimethyl-4-[3-(1-methylpyrazol-4-yl)-1-[(1R)-1-phenylethyl]pyrrolo[3,2-b]pyridin-6-yl]isoxazole]		< 10	≤ 1
Cc1noc(C)c1-c1cnc2c(I)cn(C(C)c3ccccc3)c2c1 (stereo not shown) [P-0224, 4-[3-iodo-1-(1-phenylethyl)pyrrolo[3,2-b]pyridin-6-yl]-3,5-dimethyl-isoxazole]		< 10	≤ 1
